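Dose response: 5 concentrations. Exposure: 48 h. Format: 96-well plates. Endpoint: linear interpolation; highest concentration if not reached. Abbreviation: GI50, concentration required for 50% inhibition of growth.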 The source made the active and inactive calls. Rule as the data show it: active = GI50 up to about 1.1 µM and inactive = higher.
Experiments:
Assay in all cases: inhibition of tumour cell growth, NCI panel, 48 h
RPMI-8226 = tested on: RPMI-8226
NCI/ADR-RES = tested on: NCI/ADR-RES
SN12C = tested on: SN12C
OVCAR-8 = tested on: OVCAR-8
MCF7 = tested on: MCF7
BT-549 = tested on: BT-549
SNB-19 = tested on: SNB-19
MOLT-4 = tested on: MOLT-4
MDA-N = tested on: MDA-N
NCI-H226 = tested on: NCI-H226
OVCAR-3 = tested on: OVCAR-3
ACHN = tested on: ACHN
HOP-92 = tested on: HOP-92
SF-295 = tested on: SF-295
EKVX = tested on: EKVX
SK-MEL-28 = tested on: SK-MEL-28
HCT-15 = tested on: HCT-15
CAKI-1 = tested on: CAKI-1
HCT-116 = tested on: HCT-116
M14 = tested on: M14
DU-145 = tested on: DU-145
HOP-62 = tested on: HOP-62
NCI-H460 = tested on: NCI-H460
T47D = tested on: T47D
LOX IMVI = tested on: LOX IMVI
MDA-MB-435 = tested on: MDA-MB-435
SK-OV-3 = tested on: SK-OV-3
MDA-MB-231 = tested on: MDA-MB-231
Malme-3M = tested on: Malme-3M
SR = tested on: SR
OVCAR-5 = tested on: OVCAR-5
KM12 = tested on: KM12
SW-620 = tested on: SW-620
A498 = tested on: A498
A549 = tested on: A549
HCC 2998 = tested on: HCC 2998
IGROV-1 = tested on: IGROV-1
HL-60 = tested on: HL-60
UACC-257 = tested on: UACC-257
NCI-H23 = tested on: NCI-H23
SF-268 = tested on: SF-268
PC-3 = tested on: PC-3
HT-29 = tested on: HT-29
SF-539 = tested on: SF-539
UO-31 = tested on: UO-31
TK-10 = tested on: TK-10
U-251 = tested on: U-251
CCRF-CEM = tested on: CCRF-CEM
SK-MEL-5 = tested on: SK-MEL-5
786-0 = tested on: 786-0
COLO 205 = tested on: COLO 205
UACC-62 = tested on: UACC-62
SNB-75 = tested on: SNB-75
OVCAR-4 = tested on: OVCAR-4
RXF 393 = tested on: RXF 393
Hs-578T = tested on: Hs-578T
SK-MEL-2 = tested on: SK-MEL-2
NCI-H522 = tested on: NCI-H522
K562 = tested on: K562

CC1=C(C)C(=O)C2=C(OCCO2)C1=O
GI50 (RPMI-8226): 2.34 µM (inactive) | GI50 (NCI/ADR-RES): 3.54 µM (inactive) | GI50 (SN12C): 20 µM (inactive) | GI50 (OVCAR-8): 3.08 µM (inactive) | GI50 (MCF7): 24.5 µM (inactive) | GI50 (BT-549): 22.8 µM (inactive) | GI50 (SNB-19): 17.3 µM (inactive) | GI50 (MOLT-4): 2.55 µM (inactive) | GI50 (MDA-N): 10.3 µM (inactive) | GI50 (NCI-H226): 24.3 µM (inactive) | GI50 (OVCAR-3): 10.3 µM (inactive) | GI50 (ACHN): 25.2 µM (inactive) | GI50 (HOP-92): 2.75 µM (inactive) | GI50 (SF-295): 18.1 µM (inactive) | GI50 (EKVX): 15.1 µM (inactive) | GI50 (SK-MEL-28): 16.1 µM (inactive) | GI50 (HCT-15): 17.5 µM | GI50 (CAKI-1): 17.6 µM (inactive) | GI50 (HCT-116): 3.73 µM (inactive) | GI50 (M14): 19.3 µM (inactive) | GI50 (DU-145): 18.8 µM (inactive) | GI50 (HOP-62): 17.7 µM (inactive) | GI50 (NCI-H460): 20.6 µM (inactive) | GI50 (T47D): 2.39 µM (inactive) | GI50 (LOX IMVI): 12.1 µM (inactive) | GI50 (MDA-MB-435): 2.82 µM (inactive) | GI50 (SK-OV-3): 17.9 µM (inactive) | GI50 (MDA-MB-231): 4.47 µM (inactive) | GI50 (Malme-3M): 15.9 µM (inactive) | GI50 (SR): 4.09 µM (inactive) | GI50 (OVCAR-5): 19.7 µM (inactive) | GI50 (KM12): 17.3 µM (inactive) | GI50 (SW-620): 20.6 µM (inactive) | GI50 (A498): 19.5 µM (inactive) | GI50 (A549): 21.5 µM (inactive) | GI50 (HCC 2998): 19.5 µM (inactive) | GI50 (IGROV-1): 2.11 µM (inactive) | GI50 (HL-60): 2.96 µM (inactive) | GI50 (UACC-257): 13.8 µM (inactive) | GI50 (NCI-H23): 18.2 µM (inactive) | GI50 (SF-268): 27.1 µM (inactive) | GI50 (PC-3): 18.2 µM (inactive) | GI50 (HT-29): 20 µM (inactive) | GI50 (SF-539): 19.9 µM (inactive) | GI50 (UO-31): 10.1 µM (inactive) | GI50 (TK-10): 16.9 µM (inactive) | GI50 (U-251): 16.1 µM (inactive) | GI50 (CCRF-CEM): 3.73 µM (inactive) | GI50 (SK-MEL-5): 16 µM (inactive) | GI50 (786-0): 22.5 µM (inactive) | GI50 (COLO 205): 17.6 µM (inactive)

N#C[C@H](c1ccccn1)c1nc2ccccc2nc1Cl
GI50 (RPMI-8226): > 100 µM (inactive) | GI50 (NCI/ADR-RES): > 100 µM (inactive) | GI50 (UACC-62): > 100 µM (inactive) | GI50 (SN12C): > 100 µM (inactive) | GI50 (OVCAR-8): > 100 µM (inactive) | GI50 (MCF7): > 100 µM (inactive) | GI50 (SNB-75): > 100 µM (inactive) | GI50 (BT-549): > 100 µM (inactive) | GI50 (SNB-19): > 100 µM (inactive) | GI50 (MOLT-4): > 100 µM (inactive) | GI50 (MDA-N): > 100 µM (inactive) | GI50 (OVCAR-4): > 100 µM (inactive) | GI50 (NCI-H226): > 100 µM (inactive) | GI50 (OVCAR-3): > 100 µM (inactive) | GI50 (ACHN): > 100 µM (inactive) | GI50 (HOP-92): > 100 µM (inactive) | GI50 (SF-295): > 100 µM (inactive) | GI50 (EKVX): > 100 µM (inactive) | GI50 (SK-MEL-28): > 100 µM (inactive) | GI50 (HCT-15): > 100 µM | GI50 (CAKI-1): > 100 µM (inactive) | GI50 (HCT-116): > 100 µM (inactive) | GI50 (M14): > 100 µM (inactive) | GI50 (HOP-62): > 100 µM (inactive) | GI50 (NCI-H460): > 100 µM (inactive) | GI50 (T47D): > 100 µM (inactive) | GI50 (MDA-MB-435): > 100 µM (inactive) | GI50 (SK-OV-3): > 100 µM (inactive) | GI50 (MDA-MB-231): > 100 µM (inactive) | GI50 (Malme-3M): > 100 µM (inactive) | GI50 (SR): > 100 µM (inactive) | GI50 (OVCAR-5): > 100 µM (inactive) | GI50 (KM12): 36.5 µM (inactive) | GI50 (SW-620): > 100 µM (inactive) | GI50 (A498): > 100 µM (inactive) | GI50 (A549): > 100 µM (inactive) | GI50 (HCC 2998): > 100 µM (inactive) | GI50 (RXF 393): > 100 µM (inactive) | GI50 (Hs-578T): > 100 µM (inactive) | GI50 (IGROV-1): > 100 µM (inactive) | GI50 (HL-60): 74.6 µM (inactive) | GI50 (UACC-257): > 100 µM (inactive) | GI50 (NCI-H23): > 100 µM (inactive) | GI50 (PC-3): > 100 µM (inactive) | GI50 (HT-29): > 100 µM (inactive) | GI50 (SF-539): > 100 µM (inactive) | GI50 (UO-31): > 100 µM (inactive) | GI50 (SK-MEL-2): > 100 µM (inactive) | GI50 (U-251): > 100 µM (inactive) | GI50 (CCRF-CEM): > 100 µM (inactive) | GI50 (SK-MEL-5): > 100 µM (inactive) | GI50 (NCI-H522): > 100 µM (inactive) | GI50 (786-0): > 100 µM (inactive) | GI50 (COLO 205): > 100 µM (inactive)

CCC(CN(C)C)C(=O)c1ccco1 (configuration not stated)
GI50 (RPMI-8226): 68.5 µM (inactive) | GI50 (NCI/ADR-RES): > 100 µM (inactive) | GI50 (UACC-62): > 100 µM (inactive) | GI50 (SN12C): > 100 µM (inactive) | GI50 (OVCAR-8): > 100 µM (inactive) | GI50 (MCF7): 47.9 µM (inactive) | GI50 (SNB-75): > 100 µM (inactive) | GI50 (BT-549): > 100 µM (inactive) | GI50 (SNB-19): > 100 µM (inactive) | GI50 (MOLT-4): 22.3 µM (inactive) | GI50 (OVCAR-4): > 100 µM (inactive) | GI50 (OVCAR-3): > 100 µM (inactive) | GI50 (ACHN): > 100 µM (inactive) | GI50 (HOP-92): 23 µM (inactive) | GI50 (SF-295): > 100 µM (inactive) | GI50 (K562): > 100 µM (inactive) | GI50 (EKVX): > 100 µM (inactive) | GI50 (SK-MEL-28): > 100 µM (inactive) | GI50 (HCT-15): > 100 µM | GI50 (CAKI-1): > 100 µM (inactive) | GI50 (HCT-116): > 100 µM (inactive) | GI50 (M14): > 100 µM (inactive) | GI50 (DU-145): > 100 µM (inactive) | GI50 (HOP-62): > 100 µM (inactive) | GI50 (NCI-H460): > 100 µM (inactive) | GI50 (T47D): > 100 µM (inactive) | GI50 (LOX IMVI): > 100 µM (inactive) | GI50 (MDA-MB-435): > 100 µM (inactive) | GI50 (SK-OV-3): > 100 µM (inactive) | GI50 (MDA-MB-231): > 100 µM (inactive) | GI50 (Malme-3M): 41.4 µM (inactive) | GI50 (SR): > 100 µM (inactive) | GI50 (OVCAR-5): > 100 µM (inactive) | GI50 (KM12): > 100 µM (inactive) | GI50 (SW-620): > 100 µM (inactive) | GI50 (A498): > 100 µM (inactive) | GI50 (A549): > 100 µM (inactive) | GI50 (HCC 2998): > 100 µM (inactive) | GI50 (RXF 393): > 100 µM (inactive) | GI50 (Hs-578T): 98.6 µM (inactive) | GI50 (IGROV-1): > 100 µM (inactive) | GI50 (UACC-257): > 100 µM (inactive) | GI50 (NCI-H23): > 100 µM (inactive) | GI50 (SF-268): 54.8 µM (inactive) | GI50 (PC-3): > 100 µM (inactive) | GI50 (HT-29): > 100 µM (inactive) | GI50 (UO-31): > 100 µM (inactive) | GI50 (TK-10): > 100 µM (inactive) | GI50 (SK-MEL-2): > 100 µM (inactive) | GI50 (U-251): > 100 µM (inactive) | GI50 (NCI-H522): 14.5 µM (inactive) | GI50 (786-0): > 100 µM (inactive)

Reference: ChEMBL document CHEMBL1201862, “PubChem BioAssay data set” (2004)
